ChEMBL document CHEMBL4507272 (2021)

Experiments:
[1] = biological target: Epithelial discoidin domain-containing receptor 1 (Homo sapiens) (UniProt Q08345); details: Compound concentration 1000.0 nM
[2] = biological target: 5-hydroxytryptamine receptor 6 (Homo sapiens) (UniProt P50406); details: Compound concentration 10.0 uM
[3] = biological target: Vascular endothelial growth factor receptor 2 (Homo sapiens) (UniProt P35968); details: Compound concentration 1000.0 nM
[4] = biological target: NUAK family SNF1-like kinase 1 (Homo sapiens) (UniProt O60285); details: Compound concentration 1000.0 nM
[5] = system: Tyrosine-protein kinase ABL1 (Homo sapiens), P00519 [H396P]; details: Compound concentration 1000.0 nM
[6] = biological target: Calcium/calmodulin-dependent protein kinase type II subunit beta (Homo sapiens) (UniProt Q13554); details: Compound concentration 1000.0 nM
[7] = biological target: Serine/threonine-protein kinase MRCK alpha (Homo sapiens) (UniProt Q5VT25); details: Compound concentration 1000.0 nM
[8] = biological target: Hepatocyte growth factor receptor (Homo sapiens) (UniProt P08581); details: Compound concentration 1000.0 nM
[9] = biological target: STE20/SPS1-related proline-alanine-rich protein kinase (Homo sapiens) (UniProt Q9UEW8); details: Compound concentration 1000.0 nM
[10] = biological target: Serine/threonine-protein kinase PLK4 (Homo sapiens) (UniProt O00444); details: Compound concentration 1000.0 nM
[11] = biological target: MAP kinase-activated protein kinase 5 (Homo sapiens) (UniProt Q8IW41); details: Compound concentration 1000.0 nM
[12] = biological target: Tyrosine-protein kinase ABL1 (Homo sapiens) (UniProt P00519); details: Compound concentration 1000.0 nM
[13] = biological target: Mitogen-activated protein kinase kinase kinase 19 (Homo sapiens) (UniProt Q56UN5); details: Compound concentration 1000.0 nM
[14] = biological target: Aurora kinase B (Homo sapiens) (UniProt Q96GD4); details: Compound concentration 1000.0 nM
[15] = biological target: Serine/threonine-protein kinase MAK (Homo sapiens) (UniProt P20794); details: Compound concentration 1000.0 nM
[16] = biological target: Protein-tyrosine kinase 6 (Homo sapiens) (UniProt Q13882); details: Compound concentration 1000.0 nM
[17] = biological target: Serine/threonine-protein kinase haspin (Homo sapiens) (UniProt Q8TF76); details: Compound concentration 1000.0 nM
[18] = biological target: Cyclin-dependent kinase 7 (Homo sapiens) (UniProt P50613); details: Compound concentration 1000.0 nM
[19] = biological target: Proto-oncogene tyrosine-protein kinase ROS (Homo sapiens) (UniProt P08922); details: Compound concentration 1000.0 nM
[20] = biological target: Phosphatidylinositol 3-kinase catalytic subunit type 3 (Homo sapiens) (UniProt Q8NEB9); details: Compound concentration 1000.0 nM
[21] = biological target: D(1A) dopamine receptor (Homo sapiens) (UniProt P21728); details: Compound concentration 10.0 uM
[22] = system: Leucine-rich repeat serine/threonine-protein kinase 2 (Homo sapiens), Q5S007 [G2019S]; details: Compound concentration 1000.0 nM
[23] = biological target: Myosin light chain kinase 2, skeletal/cardiac muscle (Homo sapiens) (UniProt Q9H1R3); details: Compound concentration 1000.0 nM
[24] = biological target: Mitogen-activated protein kinase 8 (Homo sapiens) (UniProt P45983); details: Compound concentration 1000.0 nM
[25] = biological target: Serine/threonine-protein kinase 38-like (Homo sapiens) (UniProt Q9Y2H1); details: Compound concentration 1000.0 nM
[26] = biological target: Ribosomal protein S6 kinase alpha-4 (Homo sapiens) (UniProt O75676); details: Compound concentration 1000.0 nM
[27] = biological target: Serine/threonine-protein kinase N2 (Homo sapiens) (UniProt Q16513); details: Compound concentration 1000.0 nM
[28] = biological target: Serine/threonine-protein kinase Nek11 (Homo sapiens) (UniProt Q8NG66); details: Compound concentration 1000.0 nM
[29] = system: Phosphatidylinositol 4,5-bisphosphate 3-kinase catalytic subunit alpha isoform (Homo sapiens), P42336 [H1047L]; details: Compound concentration 1000.0 nM
[30] = biological target: Ephrin type-B receptor 6 (Homo sapiens) (UniProt O15197); details: Compound concentration 1000.0 nM
[31] = system: Proto-oncogene tyrosine-protein kinase receptor Ret (Homo sapiens), P07949 [V804M]; details: Compound concentration 1000.0 nM
[32] = biological target: Tyrosine-protein kinase Fyn (Homo sapiens) (UniProt P06241); details: Compound concentration 1000.0 nM
[33] = biological target: Serine/threonine-protein kinase MRCK beta (Homo sapiens) (UniProt Q9Y5S2); details: Compound concentration 1000.0 nM
[34] = biological target: Bone morphogenetic protein receptor type-1A (Homo sapiens) (UniProt P36894); details: Compound concentration 1000.0 nM
[35] = biological target: Ribosomal protein S6 kinase alpha-5 (Homo sapiens) (UniProt O75582); details: Compound concentration 1000.0 nM
[36] = system: Epidermal growth factor receptor (Homo sapiens), P00533 [UNDEFINED MUTATION]; details: Compound concentration 1000.0 nM
[37] = biological target: Serine/threonine-protein kinase 26 (Homo sapiens) (UniProt Q9P289); details: Compound concentration 1000.0 nM
[38] = system: Receptor-type tyrosine-protein kinase FLT3 (Homo sapiens), P36888 [K663Q]; details: Compound concentration 1000.0 nM
[39] = system: Receptor-type tyrosine-protein kinase FLT3 (Homo sapiens), P36888 [UNDEFINED MUTATION]; details: Compound concentration 1000.0 nM
[40] = biological target: Serine/threonine-protein kinase TBK1 (Homo sapiens) (UniProt Q9UHD2); details: Compound concentration 1000.0 nM
[41] = biological target: Serine/threonine-protein kinase PAK 2 (Homo sapiens) (UniProt Q13177); details: Compound concentration 1000.0 nM
[42] = system: Tyrosine-protein kinase ABL1 (Homo sapiens), P00519 [Y253F]; details: Compound concentration 1000.0 nM
[43] = biological target: Phosphatidylinositol 4-kinase beta (Homo sapiens) (UniProt Q9UBF8); details: Compound concentration 1000.0 nM
[44] = biological target: Serine/threonine-protein kinase DCLK2 (Homo sapiens) (UniProt Q8N568); details: Compound concentration 1000.0 nM

Sequence of Phosphatidylinositol 3-kinase catalytic subunit type 3 (Homo sapiens) (Q8NEB9 whole entry): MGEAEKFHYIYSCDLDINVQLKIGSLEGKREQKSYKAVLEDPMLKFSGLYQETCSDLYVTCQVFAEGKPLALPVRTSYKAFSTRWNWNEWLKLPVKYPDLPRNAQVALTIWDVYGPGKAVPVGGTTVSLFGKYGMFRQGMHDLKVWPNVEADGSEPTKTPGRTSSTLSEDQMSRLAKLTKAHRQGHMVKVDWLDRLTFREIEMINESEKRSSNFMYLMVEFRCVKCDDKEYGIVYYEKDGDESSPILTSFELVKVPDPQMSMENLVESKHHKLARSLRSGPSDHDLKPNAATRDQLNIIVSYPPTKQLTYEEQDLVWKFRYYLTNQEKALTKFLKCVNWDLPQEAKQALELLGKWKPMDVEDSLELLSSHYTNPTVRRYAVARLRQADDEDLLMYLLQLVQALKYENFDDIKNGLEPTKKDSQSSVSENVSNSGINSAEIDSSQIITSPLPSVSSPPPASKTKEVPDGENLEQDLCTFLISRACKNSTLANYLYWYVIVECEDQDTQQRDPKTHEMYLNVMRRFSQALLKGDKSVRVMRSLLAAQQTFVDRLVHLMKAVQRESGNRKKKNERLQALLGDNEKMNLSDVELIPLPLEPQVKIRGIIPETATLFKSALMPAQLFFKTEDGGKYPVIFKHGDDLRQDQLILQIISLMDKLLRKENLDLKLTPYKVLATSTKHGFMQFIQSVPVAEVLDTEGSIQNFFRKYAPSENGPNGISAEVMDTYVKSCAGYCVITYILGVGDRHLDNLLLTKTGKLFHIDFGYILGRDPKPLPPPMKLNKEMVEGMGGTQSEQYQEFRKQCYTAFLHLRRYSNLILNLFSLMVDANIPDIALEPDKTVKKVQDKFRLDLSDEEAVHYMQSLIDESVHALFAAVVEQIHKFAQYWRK
Sequence of 5-hydroxytryptamine receptor 6 (Homo sapiens) (P50406 whole entry): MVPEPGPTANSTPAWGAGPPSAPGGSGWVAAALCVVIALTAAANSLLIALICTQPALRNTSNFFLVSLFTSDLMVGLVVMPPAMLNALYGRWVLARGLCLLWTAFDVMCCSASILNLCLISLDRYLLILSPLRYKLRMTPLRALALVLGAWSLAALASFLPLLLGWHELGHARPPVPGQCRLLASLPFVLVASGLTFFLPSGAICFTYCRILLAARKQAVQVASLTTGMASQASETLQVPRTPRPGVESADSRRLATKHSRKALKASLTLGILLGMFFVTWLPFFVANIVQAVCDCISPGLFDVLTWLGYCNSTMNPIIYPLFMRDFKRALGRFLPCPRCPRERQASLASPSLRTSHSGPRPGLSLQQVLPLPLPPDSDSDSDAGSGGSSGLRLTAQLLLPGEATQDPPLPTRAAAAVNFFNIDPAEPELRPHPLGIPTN
Sequence of Ephrin type-B receptor 6 (Homo sapiens) (O15197 whole entry): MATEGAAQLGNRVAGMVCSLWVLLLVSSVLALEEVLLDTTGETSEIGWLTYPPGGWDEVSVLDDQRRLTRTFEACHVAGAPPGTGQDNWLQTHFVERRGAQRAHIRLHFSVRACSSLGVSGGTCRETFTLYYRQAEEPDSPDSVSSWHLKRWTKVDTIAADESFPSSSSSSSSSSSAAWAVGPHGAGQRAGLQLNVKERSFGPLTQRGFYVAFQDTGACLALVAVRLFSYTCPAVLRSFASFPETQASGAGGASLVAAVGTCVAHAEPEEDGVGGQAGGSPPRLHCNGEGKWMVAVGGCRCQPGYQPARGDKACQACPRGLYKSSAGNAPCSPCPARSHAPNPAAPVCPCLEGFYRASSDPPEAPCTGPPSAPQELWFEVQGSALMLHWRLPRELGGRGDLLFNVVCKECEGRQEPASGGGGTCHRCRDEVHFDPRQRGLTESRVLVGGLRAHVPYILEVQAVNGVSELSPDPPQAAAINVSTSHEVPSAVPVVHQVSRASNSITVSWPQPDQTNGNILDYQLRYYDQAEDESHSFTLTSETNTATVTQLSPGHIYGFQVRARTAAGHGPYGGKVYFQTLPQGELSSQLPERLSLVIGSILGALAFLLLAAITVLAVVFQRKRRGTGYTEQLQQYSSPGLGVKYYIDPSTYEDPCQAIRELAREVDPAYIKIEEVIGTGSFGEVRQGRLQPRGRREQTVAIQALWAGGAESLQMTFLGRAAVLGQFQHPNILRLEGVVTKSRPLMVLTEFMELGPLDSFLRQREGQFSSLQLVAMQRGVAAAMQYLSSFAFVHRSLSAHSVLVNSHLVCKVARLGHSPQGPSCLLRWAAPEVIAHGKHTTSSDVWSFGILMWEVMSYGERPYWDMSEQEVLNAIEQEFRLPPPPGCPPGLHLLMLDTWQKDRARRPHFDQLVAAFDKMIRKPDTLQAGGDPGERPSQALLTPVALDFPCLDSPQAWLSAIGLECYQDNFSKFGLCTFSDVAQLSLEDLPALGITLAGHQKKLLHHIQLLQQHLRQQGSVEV
Sequence of Protein-tyrosine kinase 6 (Homo sapiens) (Q13882 whole entry, looked up): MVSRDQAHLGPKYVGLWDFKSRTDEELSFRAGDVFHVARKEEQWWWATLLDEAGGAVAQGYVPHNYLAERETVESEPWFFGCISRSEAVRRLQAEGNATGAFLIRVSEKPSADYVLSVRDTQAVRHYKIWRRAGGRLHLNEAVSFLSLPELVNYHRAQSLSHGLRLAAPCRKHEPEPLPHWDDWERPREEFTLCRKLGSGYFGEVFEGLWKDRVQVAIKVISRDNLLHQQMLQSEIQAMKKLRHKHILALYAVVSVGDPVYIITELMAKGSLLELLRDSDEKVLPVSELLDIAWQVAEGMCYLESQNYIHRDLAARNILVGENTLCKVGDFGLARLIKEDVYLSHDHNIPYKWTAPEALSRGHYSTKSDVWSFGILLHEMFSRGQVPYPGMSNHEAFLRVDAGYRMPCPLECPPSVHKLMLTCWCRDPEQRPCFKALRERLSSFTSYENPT
Sequence of Cyclin-dependent kinase 7 (Homo sapiens) (P50613 whole entry): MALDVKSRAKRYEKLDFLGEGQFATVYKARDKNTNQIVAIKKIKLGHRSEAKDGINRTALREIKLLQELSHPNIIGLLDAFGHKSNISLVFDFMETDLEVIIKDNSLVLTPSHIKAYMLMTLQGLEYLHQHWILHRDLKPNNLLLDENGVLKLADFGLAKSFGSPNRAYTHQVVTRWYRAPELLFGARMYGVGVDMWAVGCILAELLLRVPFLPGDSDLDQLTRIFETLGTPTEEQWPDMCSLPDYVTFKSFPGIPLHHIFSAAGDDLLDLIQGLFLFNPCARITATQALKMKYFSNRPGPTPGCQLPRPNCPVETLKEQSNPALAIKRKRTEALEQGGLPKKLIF
Sequence of Mitogen-activated protein kinase kinase kinase 19 (Homo sapiens) (Q56UN5 whole entry): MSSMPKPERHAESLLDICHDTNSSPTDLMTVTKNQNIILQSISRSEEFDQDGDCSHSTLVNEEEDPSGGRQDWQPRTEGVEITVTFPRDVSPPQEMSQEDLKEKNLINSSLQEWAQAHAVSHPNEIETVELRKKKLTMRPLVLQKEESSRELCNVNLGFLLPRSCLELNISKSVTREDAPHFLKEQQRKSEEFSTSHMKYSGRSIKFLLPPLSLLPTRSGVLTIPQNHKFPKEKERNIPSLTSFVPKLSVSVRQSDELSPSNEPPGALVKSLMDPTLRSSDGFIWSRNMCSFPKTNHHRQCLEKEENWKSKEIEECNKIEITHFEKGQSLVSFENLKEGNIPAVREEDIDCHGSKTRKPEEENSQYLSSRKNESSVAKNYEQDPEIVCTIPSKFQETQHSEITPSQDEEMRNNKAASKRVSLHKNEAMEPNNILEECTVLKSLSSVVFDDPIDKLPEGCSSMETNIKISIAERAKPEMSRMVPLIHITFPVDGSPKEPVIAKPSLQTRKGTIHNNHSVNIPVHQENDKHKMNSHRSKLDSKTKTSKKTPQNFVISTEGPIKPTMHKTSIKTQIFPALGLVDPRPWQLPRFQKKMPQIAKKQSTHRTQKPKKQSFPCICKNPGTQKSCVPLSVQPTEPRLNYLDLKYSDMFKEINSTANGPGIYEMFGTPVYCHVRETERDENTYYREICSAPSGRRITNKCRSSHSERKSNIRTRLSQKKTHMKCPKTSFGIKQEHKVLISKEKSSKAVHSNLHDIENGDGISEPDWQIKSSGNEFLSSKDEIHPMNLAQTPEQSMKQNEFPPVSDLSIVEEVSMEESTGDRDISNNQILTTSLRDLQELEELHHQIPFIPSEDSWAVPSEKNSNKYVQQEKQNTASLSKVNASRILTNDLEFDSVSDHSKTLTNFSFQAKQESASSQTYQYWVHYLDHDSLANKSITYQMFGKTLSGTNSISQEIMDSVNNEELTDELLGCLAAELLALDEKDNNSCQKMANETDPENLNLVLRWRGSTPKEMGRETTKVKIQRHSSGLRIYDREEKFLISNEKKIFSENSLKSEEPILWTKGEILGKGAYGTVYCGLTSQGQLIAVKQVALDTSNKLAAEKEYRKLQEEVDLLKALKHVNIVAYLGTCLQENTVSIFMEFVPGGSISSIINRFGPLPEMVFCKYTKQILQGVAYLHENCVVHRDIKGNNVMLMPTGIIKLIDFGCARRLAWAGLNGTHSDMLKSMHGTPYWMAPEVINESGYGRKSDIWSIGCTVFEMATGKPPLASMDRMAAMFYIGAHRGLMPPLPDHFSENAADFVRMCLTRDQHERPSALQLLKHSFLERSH
Sequence of Serine/threonine-protein kinase PAK 2 (Homo sapiens) (Q13177 whole entry): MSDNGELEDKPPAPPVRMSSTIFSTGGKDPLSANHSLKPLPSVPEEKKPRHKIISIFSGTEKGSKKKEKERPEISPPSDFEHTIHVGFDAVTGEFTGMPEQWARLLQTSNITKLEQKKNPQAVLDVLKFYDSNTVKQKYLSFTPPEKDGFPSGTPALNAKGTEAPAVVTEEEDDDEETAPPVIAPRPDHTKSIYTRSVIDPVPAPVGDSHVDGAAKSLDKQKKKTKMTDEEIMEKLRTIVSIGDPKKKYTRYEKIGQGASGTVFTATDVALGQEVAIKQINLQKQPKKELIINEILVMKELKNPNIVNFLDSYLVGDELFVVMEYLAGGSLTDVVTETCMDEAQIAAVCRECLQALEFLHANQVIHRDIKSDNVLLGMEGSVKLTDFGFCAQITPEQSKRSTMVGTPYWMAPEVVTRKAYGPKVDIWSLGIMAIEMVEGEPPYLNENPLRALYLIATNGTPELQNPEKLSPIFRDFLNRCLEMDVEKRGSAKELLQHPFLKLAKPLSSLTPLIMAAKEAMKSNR

CC(=O)C1=C(C)N(c2cccc(C(F)(F)F)c2)C(=O)N[C@@H]1c1ccc(C#N)nc1 [BAY-678]
inactive: residual activity [1] 71.5% | inhibition [2] -6.02% | residual activity [3] 84% | residual activity [4] 93.2% | residual activity [5] 87.1% | residual activity [6] 95.7% | residual activity [7] 100% | residual activity [8] 98.1% | residual activity [9] 90.8% | residual activity [10] 82.7% | residual activity [11] 100% | residual activity [12] 96.5% | residual activity [13] 93% | residual activity [14] 100% | residual activity [15] 82.5% | residual activity [16] 100% | residual activity [17] 100% | residual activity [18] 90.6% | residual activity [19] 100% | residual activity [20] 100% | inhibition [21] -8.4% | residual activity [22] 100% | residual activity [23] 100% | residual activity [24] 100% | residual activity [25] 93.6% | residual activity [26] 78.8% | residual activity [27] 96.3% | residual activity [28] 100% | residual activity [29] 69% | residual activity [30] 85% | residual activity [31] 100% | residual activity [32] 100% | residual activity [33] 100% | residual activity [34] 100% | residual activity [35] 83.4% | residual activity [36] 80.3% | residual activity [37] 100% | residual activity [38] 100% | residual activity [39] 100% | residual activity [40] 89.5% | residual activity [41] 98.2% | residual activity [42] 100% | residual activity [43] 100% | residual activity [44] 88%
